Experimental data from patent US20250230193A1, “CYCLIC COMPOUND HAVING SELECTIVE KRAS INHIBITORY EFFECT ON HRAS AND NRAS” (CHUGAI SEIYAKU KABUSHIKI KAISHA, priority 2022, published 2025).
Where two headings read alike, the source gives them in different places.

Tests used:
[1] = system: human lung cancer strain NCI-H441
[2] = molecular target: GDP-bound HRAS wild-type protein (Homo sapiens, UniProt P01112); test: Binding to HRAS by surface plasmon resonance (SPR), Single Cycle Kinetics
[3] = molecular target: GDP-bound NRAS wild-type protein (Homo sapiens, UniProt P01111); test: Binding to NRAS by surface plasmon resonance (SPR), Single Cycle Kinetics
[4] = GDP-bound HRAS wild-type vs GDP-bound KRAS wild-type, SPR
[5] = GDP-bound NRAS wild-type vs GDP-bound KRAS wild-type, SPR
[6] = read-out: NCI-H441 IC50, NCI-H441 cells, 4 days, CellTiter-Glo
[7] = SPR, GDP-bound wild-type proteins

Sequence of GDP-bound NRAS wild-type protein (P01111 whole entry): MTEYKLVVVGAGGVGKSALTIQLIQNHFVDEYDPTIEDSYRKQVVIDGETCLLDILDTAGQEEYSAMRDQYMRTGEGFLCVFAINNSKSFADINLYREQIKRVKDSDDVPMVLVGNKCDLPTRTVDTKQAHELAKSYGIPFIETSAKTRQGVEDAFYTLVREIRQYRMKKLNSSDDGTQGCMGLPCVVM
Sequence of GDP-bound HRAS wild-type protein (P01112 whole entry): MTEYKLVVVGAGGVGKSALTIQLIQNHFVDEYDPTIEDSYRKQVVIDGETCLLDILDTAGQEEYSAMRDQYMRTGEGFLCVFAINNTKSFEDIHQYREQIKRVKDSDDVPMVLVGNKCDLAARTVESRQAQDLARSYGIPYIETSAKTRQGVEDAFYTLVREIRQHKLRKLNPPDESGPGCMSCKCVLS

Structure (SMILES) | IC50 [1] | IC50 [1, 6] | HRAS/KRAS (ratio of KD value with respect to GDP-bound HRAS wild-type protein to KD value with respect to KRAS) [2, 7] | NRAS/KRAS (ratio of KD value with respect to GDP-bound NRAS wild-type protein to KD value with respect to KRAS) [3, 7] | other results
CC[C@H](C)[C@@H]1NC(=O)[C@H](CC(C)C)N(C)C(=O)C[C@@H](C(=O)N(C)C)N(C)C(=O)[C@H](C2CCCC2)N(C)C(=O)C2(CC(C)(C)C2)NC(=O)[C@@H]2C[C@@H](C)CN2C(=O)[C@H](CCc2ccc(C(F)(F)F)c(OC)c2)NC(=O)CN(C)C(=O)[C@H](Cc2ccc(C)cc2)N2CC/C=C\C[C@@H](C2=O)N(C)C(=O)CN(C)C1=O [PP1908] | 10.1 nM | – | – | – | HRAS/KRAS (ratio of KD value for HRAS to KD value for KRAS) [2, 4]: B (a compound having 3 or more and less than 10 is denoted as B); NRAS/KRAS (ratio of KD value for NRAS to KD value for KRAS) [3, 5]: A (a compound having 10 or more and less than 20 is denoted as A)
CC[C@H](C)[C@@H]1NC(=O)[C@H](CC(C)C)N(C)C(=O)C[C@@H](C(=O)N(C)CC)N(C)C(=O)[C@H](C2CCCC2)N(C)C(=O)C2(CC(C)(C)C2)NC(=O)[C@@H]2C[C@@H](C)CN2C(=O)[C@H](CCc2ccc(C(F)(F)F)c(OC)c2)NC(=O)CN(C)C(=O)[C@H](Cc2ccc(C)cc2)N2CC/C=C\C[C@@H](C2=O)N(C)C(=O)CN(C)C1=O [PP1909] | 15.3 nM | – | – | – | HRAS/KRAS (ratio of KD value for HRAS to KD value for KRAS) [2, 4]: B (a compound having 3 or more and less than 10 is denoted as B); NRAS/KRAS (ratio of KD value for NRAS to KD value for KRAS) [3, 5]: A (a compound having 10 or more and less than 20 is denoted as A)
CCO[C@@H]1C[C@H]2C(=O)NC3(CCC3)C(=O)N(C)[C@@H](C3CCCC3)C(=O)N(C)[C@H](C(=O)N(C)CC)CC(=O)N(C)[C@H]3CCCCCc4ccc(cc4)C[C@@H](C(=O)N(C)CC(=O)N[C@@H](CCc4cc(F)c(C(F)(F)F)c(F)c4)C(=O)N2C1)N1CC/C=C\C[C@@H](C1=O)N(C)C(=O)CN(C)C(=O)[C@H]([C@@H](C)CC)NC3=O [PP2117] | 28.9 nM | – | – | – | HRAS/KRAS (ratio of KD value with respect to HRAS to KD value with respect to KRAS) ([2]; SPR, GDP-bound HRAS wild-type vs GDP-bound KRAS wild-type): A (a compound having 10 or more and less than 20 is denoted as A); NRAS/KRAS (ratio of KD value with respect to NRAS to KD value with respect to KRAS) ([3]; SPR, GDP-bound NRAS wild-type vs GDP-bound KRAS wild-type): A (a compound having 10 or more and less than 20 is denoted as A)
CCC[C@H]1C(=O)N[C@@H]([C@@H](C)CC)C(=O)N(C)CC(=O)N(C)[C@H]2C/C=C\CCN(C2=O)[C@@H](Cc2ccc(C(F)(F)F)cc2)C(=O)N(C)CC(=O)N[C@@H](CCc2cc(Cl)c3c(ccn3C)c2)C(=O)N2C[C@H](OCC)C[C@H]2C(=O)NC2(CC(C)(C)C2)C(=O)N(C)[C@@H](C(CC)CC)C(=O)N(C)[C@H](C(=O)N(C)C)CC(=O)N1C [PP2896] | – | 79.3 nM | – | – | HRAS/KRAS (ratio of KD value with respect to GDP-bound HRAS wild-type protein to KD value with respect to KRAS) ([2]; class symbols): A (a compound having 10 or more and less than 20 is denoted as A); NRAS/KRAS (ratio of KD value with respect to GDP-bound NRAS wild-type protein to KD value with respect to KRAS) ([3]; class symbols): A (a compound having 10 or more and less than 20 is denoted as A)
CCC(CC)[C@H]1C(=O)N(C)[C@H](C(=O)N2CCCCC2)CC(=O)N(C)[C@H]2CCC/C=C/c3ccc(cc3)C[C@@H](C(=O)N(C)CC(=O)N[C@@H](CCc3ccc(Cl)c(Cl)c3)C(=O)N3CCC[C@H]3C(=O)NC3(CC(C)(C)C3)C(=O)N1C)N1CC/C=C\C[C@@H](C1=O)N(C)C(=O)CN(C)C(=O)[C@H]([C@@H](C)CC)NC2=O [PP3055] | – | 69.2 nM | A (a compound having 10 or more and less than 20 is denoted as A) | AA (a compound having 20 or more is denoted as AA) | –
CCO[C@@H]1C[C@H]2C(=O)NC3(CC(C)(C)C3)C(=O)N(C)[C@@H](C3CCCC3)C(=O)N(C)[C@H](C(=O)N3CCCCC3)CC(=O)N(C)[C@H]3CCCCc4ccc(cc4)C[C@@H](C(=O)N(C)CC(=O)N[C@@H](CCc4ccc(C(F)(F)F)c(OC)c4)C(=O)N2C1)N1CC/C=C\C[C@@H](C1=O)N(C)C(=O)CN(C)C(=O)[C@H]([C@@H](C)CC)NC3=O [PP3093, (1S,7S,11R,13S,19S,22S,26S,29S,35S,37Z)-19-cyclopentyl-11-ethoxy-7-[2-[3-methoxy-4-(trifluoromethyl)phenyl]ethyl]-3,3′,3′,18,21,25,31,34-octamethyl-29-[(1S)-1-methylpropyl]-22-(piperidine-1-carbonyl)spiro[3,6,9,15,18,21,25,28,31,34,41-undecazapentacyclo[24.15.9.2^43,46.1^35,41.0^9,13]tripentaconta-37,43(52),44,46(51)-tetraene-16,1′-cyclobutane]-2,5,8,14,17,20,24,27,30,33,53-undecone] | – | 3.2 nM | A (a compound having 10 or more and less than 20 is denoted as A) | A (a compound having 10 or more and less than 20 is denoted as A) | –
CCC[C@H]1C(=O)N[C@@H]([C@@H](C)CC)C(=O)N(C2CC2)CC(=O)N(C)[C@H]2C/C=C\CCN(C2=O)[C@@H](Cc2ccc(C)cc2)C(=O)N(C)CC(=O)N[C@@H](CCc2ccc(C(F)(F)F)c(OC)c2)C(=O)N2C[C@H](OCC)C[C@H]2C(=O)N(C)C2(CCC2)C(=O)N(C)[C@@H](C2CCCC2)C(=O)N(C)[C@H](C(=O)N2CCCCC2)CC(=O)N1C [PP3096, (2S,8S,12R,14S,20S,23S,27S,30S,36S,38Z)-20-cyclopentyl-32-cyclopropyl-12-ethoxy-8-[2-[3-methoxy-4-(trifluoromethyl)phenyl]ethyl]-4,16,19,22,26,35-hexamethyl-30-[(1S)-1-methylpropyl]-23-(piperidine-1-carbonyl)-27-propyl-2-(p-tolylmethyl)spiro[1,4,7,10,16,19,22,26,29,32,35-undecazatricyclo[34.5.1.0^10,14]dotetracont-38-ene-17,1′-cyclobutane]-3,6,9,15,18,21,25,28,31,34,42-undecone] | 35.8 nM | – | A (a compound having 10 or more and less than 20 is denoted as A) | A (a compound having 10 or more and less than 20 is denoted as A) | –
